Results on 23 compounds are retold here after patent US12209096B2, “Compounds and compositions for inducing chondrogenesis” (NOVARTIS AG, priority 2017, dated 2025).

SMILES strings stand for the structures. Read-outs that look alike come from different tables or passages of the source.

In experiment [1] the test system is C3H10T1/2 cell line. Briefly: alkaline phosphatase assay in C3H10T1/2. Type of experiment: cell-based. The following applies: Mus musculus, C3H 10T1/2, 144 h, alkaline phosphatase assay in C3H10T1/2, 6 days; for Emax: read-out: (D) % Efficacy; for IC50: read-out: (D) IC50. As for the experimental part:
To initiate differentiation in C3H10T1/2, Clone 8 (ATCC cat #CCL-226), 4,000 cells were plated/well in 384 Perkin Elmer CellCarrier Ultra plate in DMEM/High glucose (HyClone cat #SH30022.01) containing 10% FBS and 1× Antibiotic/Antimycotic (HyClone cat #SV30079.01). After 24 hours the test compound was then added to each well at the indicated dose. The cultures were grown at 37° C. for 6 days.
To detect the presence of hypertrophic cells, C3H10T1/2 were fixed with 4% paraformaldehyde and Hoeschst dye for 20 minutes, rinsed in PBS, then stained with Fast Blue RR Salt with Naphthol AS-MX Phosphate Alkaline Solution.
The ALP staining was imaged by fluoresecent microscopy, using the 561 wavelength, and/or quantified by high content imagining with the ImageXpress Micro Confocal (Molecular Devices, Sunnyvale, CA). Data analyses were performed with the customized multiwavelength cell-scoring application looking at the number of ALP positive cells per well.

Experiment [2] deals with NHACs. Briefly: calcium flux assay. The experiment is classed as cell-based, human. The following applies: for Emax: read-out: (A) % Efficacy. A digest of the protocol: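 FLIPR fluorescence (ex 470–495 nm, em 515–575 nm) was read before and after compound dispense at the indicated dose. Chondrocytes (NHACs), 2000 cells/well, had been dye-loaded 24 h after plating with Calcium 5 in HBSS/HEPES plus 5 mM probenecid, 1 h, room temperature.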

As for `COc1cc([C@@H]2[C@@H]3O[C@@H](C[C@H]3O)[C@H]2C(=O)Nc2ccc(Cl)c(Cl)c2)ccn1` (single isomer, unassigned) [Example 139b], in experiment [1], the Emax is 82% and the IC50 came out at 7.7 µM. Besides, in experiment [2] (Homo sapiens), the EC50 was determined as 26 µM and the Emax was 141%.
Turning to `Cc1cc([C@@H]2[C@@H]3O[C@@H](C[C@H]3O)[C@H]2C(=O)Nc2ccc(Cl)c(Cl)c2)ccn1` [Example 77c, (1S,2S,3R,4S,5R)-N-(3,4-dichlorophenyl)-5-hydroxy-3-(2-methylpyridin-4-yl)-7-oxabicyclo[2.2.1]heptane-2-carboxamide], in experiment [1], the Emax worked out at 72% and the IC50 worked out at 3.9 µM. In experiment [2] (Homo sapiens), the EC50 worked out at 13 µM and the Emax turned out to be 72%.
On to `Cc1cc([C@@H]2[C@@H]3O[C@@H](C[C@H]3O)[C@H]2C(=O)Nc2cnc(Cl)c(Cl)c2)ccn1` [Example 84, (1S,2S,3R,4S,5R)-N-(5,6-dichloropyridin-3-yl)-5-hydroxy-3-(2-methylpyridin-4-yl)-7-oxabicyclo[2.2.1]heptane-2-carboxamide], for which, in experiment [1], the Emax was found to be 31% and the IC50 is over 20 µM. In experiment [2] (Homo sapiens), the EC50 was over 50 µM and the Emax came out at 61%.
In the same order, the values of `COc1cc([C@H]2[C@H]3O[C@H](C[C@H]3F)[C@@H]2C(=O)Nc2ccc(Cl)c(Cl)c2)ccn1` [Example 165, (1R,2R,3S,4R,5R)—N-(3,4-dichlorophenyl)-5-fluoro-3-(2-methoxypyridin-4-yl)-7-oxabicyclo[2.2.1]heptane-2-carboxamide] are 59%, over 20 µM, 6 µM and 110%.
On the same counts, the results for `Cc1cc([C@H]2[C@H]3O[C@H]([C@@H]4C[C@@H]43)[C@@H]2C(=O)Nc2cccc(C(F)(F)F)c2)ccn1` (single isomer, unassigned) [Example 121a] are 80%, 4.5 µM, 2.7 µM and 231%.
Take `O=C(Nc1ccc(Cl)c(Cl)c1)[C@@H]1[C@@H](c2ccnc(C(F)(F)F)c2)[C@H]2O[C@@H]1C[C@@H]2O` (single isomer, unassigned) [Example 145a]: in experiment [1], the Emax stood at 100% and the IC50 amounted to 1.2 µM.
Turning to `Cn1cc([C@H]2[C@H]3O[C@H](C[C@@H]3O)[C@@H]2C(=O)Nc2ccc(Cl)c(Cl)c2)cn1` [Example 152, (1R,2R,3S,4R,5S)—N-(3,4-dichlorophenyl)-5-hydroxy-3-(1-methyl-1H-pyrazol-4-yl)-7-oxabicyclo[2.2.1]heptane-2-carboxamide], in experiment [1], the Emax was 61% and the IC50 was 2 µM. Also, in experiment [2] (Homo sapiens), the EC50 amounted to 12 µM and the Emax came to 44%.
In the same order, the values of `COc1cc([C@H]2[C@H]3O[C@H](C[C@@H]3F)[C@@H]2C(=O)Nc2ccc(Cl)c(Cl)c2)ccn1` [Example 103, (1R,2R,3S,4R,5S)—N-(3,4-dichlorophenyl)-5-fluoro-3-(2-methoxypyridin-4-yl)-7-oxabicyclo[2.2.1]heptane-2-carboxamide] are 79%, 10 µM, 24 µM and 153%.
On the same counts, the results for `O=C(Nc1cnc(Cl)c(Cl)c1)[C@H]1[C@@H]2O[C@@H]([C@H]3C[C@H]32)[C@@H]1c1ccnc(F)c1F` [Example 124, (1S,2S,4R,5R,6R,7S)—N-(5,6-dichloropyridin-3-yl)-7-(2,3-difluoropyridin-4-yl)-8-oxatricyclo[3.2.1.0^2,4]octane-6-carboxamide] are 59%, 17 µM, 2.8 µM and 160%.
On the same counts, the results for `O=C(Nc1ccc(Cl)c(Cl)c1)[C@H]1[C@@H](c2ccnc(C(F)(F)F)c2)[C@H]2O[C@@H]1C[C@@H]2O` (racemic) [Example 54, rac-(1R,2S,3S,4R,5S)—N-(3,4-dichlorophenyl)-5-hydroxy-3-(2-(trifluoromethyl)pyridin-4-yl)-7-oxabicyclo[2.2.1]heptane-2-carboxamide] are 35%, over 20 µM, over 50 µM and 22%.
As for `Cc1ncc([C@H]2[C@H]3O[C@H](C[C@@H]3O)[C@@H]2C(=O)Nc2ccc(Cl)c(Cl)c2)cn1` [Example 148, (1R,2R,3S,4R,5S)—N-(3,4-dichlorophenyl)-5-hydroxy-3-(2-methylpyrimidin-5-yl)-7-oxabicyclo[2.2.1]heptane-2-carboxamide], in experiment [1], the Emax amounted to 58% and the IC50 came to 18 µM. Moreover, in experiment [2] (Homo sapiens), the EC50 stood at 7.8 µM and the Emax was 51%.
On the same counts, the results for `O=C(Nc1ccc(Cl)c(Cl)c1)[C@H]1[C@@H]2O[C@@H]([C@H]3C[C@H]32)[C@@H]1c1cccc(C(F)(F)F)n1` [Example 120, (1S,2S,4R,5R,6R,7S)—N-(3,4-dichlorophenyl)-7-(6-(trifluoromethyl)pyridin-2-yl)-8-oxatricyclo[3.2.1.0^2,4]octane-6-carboxamide] are 119%, 4.4 µM, 20 µM and 102%.
On the same counts, the results for `O=C(Nc1ccc(Cl)c(Cl)c1)[C@@H]1[C@@H](c2cnc(C(F)(F)F)nc2)[C@H]2O[C@@H]1C[C@@H]2O` [Example 154, (1R,2R,3S,4R,5S)—N-(3,4-dichlorophenyl)-5-hydroxy-3-(2-(trifluoromethyl)pyrimidin-5-yl)-7-oxabicyclo[2.2.1]heptane-2-carboxamide] are 75%, 4 µM, 26 µM and 236%.
On the same counts, the results for `Cc1cc([C@@H]2[C@@H](C(=O)Nc3ccc(Cl)c(Cl)c3)[C@@H]3O[C@H]2C[C@H]3O)ccn1` (single isomer, unassigned) [Example 77b] are 47%, over 20 µM, 20 µM and 157%.
`COc1ccc(NC(=O)[C@H]2[C@@H]3O[C@@H]([C@H]4C[C@H]43)[C@@H]2c2ccc(C)nc2)cn1` [Example 123, (1S,2S,4R,5R,6R,7S)—N-(6-methoxypyridin-3-yl)-7-(6-methylpyridin-3-yl)-8-oxatricyclo[3.2.1.0^2,4]octane-6-carboxamide]: in experiment [1], the Emax was 48% and the IC50 is over 20 µM. In experiment [2] (Homo sapiens), the EC50 is over 50 µM and the Emax was determined as 0%.
`O=C(Nc1cnc(Cl)c(Cl)c1)[C@H]1[C@H](c2ccnc(F)c2)[C@@H]2O[C@H]1C[C@H]2O` (single isomer, unassigned) [Example 90b]: in experiment [1], the Emax came out at 45% and the IC50 is over 20 µM. For the same compound, in experiment [2] (Homo sapiens), the EC50 is over 50 µM and the Emax was 44%.
On the same counts, the results for `COc1cc([C@H]2[C@H]3O[C@H](C[C@@H]3O)[C@@H]2C(=O)Nc2ccc(Cl)c(Cl)c2)ccn1` (single isomer, unassigned) [Example 139a] are 54%, 1.8 µM, 25 µM and 275%.
On the same counts, the results for `Cc1cc([C@H]2[C@H]3O[C@H]([C@@H]4C[C@@H]43)[C@@H]2C(=O)Nc2ccc(Cl)c(Cl)c2)ccn1` [Example 117, (1S,2S,4R,5R,6R,7S)—N-(3,4-dichlorophenyl)-7-(2-methylpyridin-4-yl)-8-oxatricyclo[3.2.1.0^2,4]octane-6-carboxamide] are 59%, 7 µM, 3 µM and 177%.
Regarding `O=C(Nc1ccc(Cl)c(Cl)c1)[C@H]1[C@H](c2ccnc(C(F)(F)F)c2)[C@@H]2O[C@H]1C[C@H]2O` (single isomer, unassigned) [Example 145b], in experiment [1], the Emax is 83% and the IC50 turned out to be 11 µM.
As to `Cc1ccc([C@H]2[C@H]3O[C@H](C[C@@H]3O)[C@H]2C(=O)Nc2ccc(Cl)c(Cl)c2)cn1` [Example 48, (1R,2S,3S,4R,5S)—N-(3,4-dichlorophenyl)-5-hydroxy-3-(6-methylpyridin-3-yl)-7-oxabicyclo[2.2.1]heptane-2-carboxamide], in experiment [2] (Homo sapiens), the EC50 is 22 µM and the Emax turned out to be 80%.
Regarding `O=C(Nc1ccc(Cl)c(Cl)c1)[C@@H]1[C@H](c2ccnc(F)c2)[C@@H]2O[C@H]1C[C@H]2O` (single isomer, unassigned) [Example 52b], in experiment [2] (Homo sapiens), the EC50 is over 50 µM and the Emax turned out to be 1%.
Consider `O=C(Nc1cnc(Cl)c(Cl)c1)[C@@H]1[C@@H]2O[C@@H]([C@H]3C[C@H]32)[C@@H]1c1ccncc1` [Example 43a, (1S,2S,4R,5R,6S,7S)—N-(5,6-dichloropyridin-3-yl)-7-(pyridin-4-yl)-8-oxatricyclo[3.2.1.0^24]octane-6-carboxamide], for which, in experiment [2], the “(A) % Efficacy” value is 0% and the EC50 was over 50 µM.
For the compound `CN[C@@H]1C[C@H]2O[C@@H]1[C@H](c1ccnc(F)c1)[C@H]2C(=O)Nc1cnc(Cl)c(Cl)c1` [Example 174, (1R,2R,3S,4R,5R)—N-(5,6-dichloropyridin-3-yl)-3-(2-fluoropyridin-4-yl)-5-(methylamino)-7-oxabicyclo[2.2.1]heptane-2-carboxamide], in experiment [2] (Homo sapiens), the concentration giving a half-maximal response (EC50) is over 50 µM and the Emax is 37%.

The IC50 is the concentration that gives 50% inhibition. In general, EC50 refers to the concentration giving half of the maximal effect.
